Results reported in ChEMBL document CHEMBL1130984, “Substrate specificity of human prolyl-4-hydroxylase” (Bioorg Med Chem Lett, 1998).

Legend:
[1] = biological target: T1, Transmembrane prolyl 4-hydroxylase (Homo sapiens, UniProt Q9NXG6); experiment: Compound was tested for inhibition of the enzyme human proline-4-hydroxylase; No inhibition
T1 sequence (Q9NXG6 whole entry): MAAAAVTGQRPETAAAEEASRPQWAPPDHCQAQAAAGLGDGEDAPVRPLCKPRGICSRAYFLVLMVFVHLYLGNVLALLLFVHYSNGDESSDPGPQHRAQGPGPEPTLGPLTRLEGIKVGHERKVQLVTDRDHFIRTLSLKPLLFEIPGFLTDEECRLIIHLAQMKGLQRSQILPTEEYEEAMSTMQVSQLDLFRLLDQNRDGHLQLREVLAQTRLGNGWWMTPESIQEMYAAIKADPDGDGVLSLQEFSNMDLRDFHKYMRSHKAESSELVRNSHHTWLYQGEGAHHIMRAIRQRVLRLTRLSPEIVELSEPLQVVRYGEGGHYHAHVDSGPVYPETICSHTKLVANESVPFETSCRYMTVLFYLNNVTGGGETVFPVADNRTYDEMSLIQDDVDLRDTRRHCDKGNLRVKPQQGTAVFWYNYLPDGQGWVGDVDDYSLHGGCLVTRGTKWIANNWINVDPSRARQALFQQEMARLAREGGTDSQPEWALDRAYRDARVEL

[2] = biological target: T2, Transmembrane prolyl 4-hydroxylase (Homo sapiens) (UniProt Q9NXG6); experiment: Compound was tested for substrate specificity of human proline-4-hydroxylase; Not a substrate
T2 sequence (whole entry): T1 sequence (Q9NXG6 whole entry)

[3] = biological target: T2, Transmembrane prolyl 4-hydroxylase (Homo sapiens); experiment: Compound was tested for substrate specificity of human proline-4-hydroxylase; Substrate

Compound | IC50 [1] | Activity [2] | Activity [3]
CCOC(=O)CNC(=O)[C@@H]1C(Br)CCN1C(=O)[C@H](Cc1ccccc1)NC(=O)CNC(=O)OCc1ccccc1 (stereo partly specified) | Not Active | Not a substrate | –
CCOC(=O)CNC(=O)[C@@H]1CC(C)CN1C(=O)[C@H](Cc1ccccc1)NC(=O)CNC(=O)OCc1ccccc1 (stereo partly specified) | Not Active | Not a substrate | –
CCOC(=O)CNC(=O)[C@@H]1C(Cl)CCN1C(=O)[C@H](Cc1ccccc1)NC(=O)CNC(=O)OCc1ccccc1 (stereo partly specified) | Not Active | Not a substrate | –
CCOC(=O)CNC(=O)[C@@H]1C(C)CCN1C(=O)[C@H](Cc1ccccc1)NC(=O)CNC(=O)OCc1ccccc1 (stereo partly specified) | Not Active | Not a substrate | –
CCOC(=O)CNC(=O)[C@H]1N(C(=O)[C@H](Cc2ccccc2)NC(=O)CNC(=O)OCc2ccccc2)CCC12CC2 | Not Active | Not a substrate | –
CCOC(=O)CNC(=O)[C@@H]1C(F)CCN1C(=O)[C@H](Cc1ccccc1)NC(=O)CNC(=O)OCc1ccccc1 (stereo partly specified) | – | – | Substrate
